Results reported in PubChem BioAssay AID1259407 (Chemical Carcinogenesis Research Information System (CCRIS), 2018).
Calls of active or inactive are those of the source. No rule for the calls is given here.

Test system: CCRIS mutagenicity, Ames/micronucleus/aberration tests
Assay: CCRIS mutagenicity studies
[1] = Test System: AMES SALMONELLA TYPHIMURIUM, Strain/Indicator: TA100, Metabolic Activation: NONE, Method: STANDARD PLATE
[2] = Test System: AMES SALMONELLA TYPHIMURIUM, Strain/Indicator: TA100, Metabolic Activation: NONE, Method: PREINCUBATION
[3] = Test System: AMES SALMONELLA TYPHIMURIUM, Strain/Indicator: TA102, Metabolic Activation: NONE, Method: PREINCUBATION
[4] = Test System: AMES SALMONELLA TYPHIMURIUM, Strain/Indicator: TA98, Metabolic Activation: NONE, Method: PREINCUBATION

SMILES: Cc1cc(N=Nc2ccccc2C)c(N)cc1N
- mutagenic call (Test System: AMES SALMONELLA TYPHIMURIUM, Strain/Indicator: TA100, Metabolic Activation: HUMAN, LIVER, S-9, Method: PREINCUBATION): inactive; negative
- mutagenic call (Test System: AMES SALMONELLA TYPHIMURIUM, Strain/Indicator: TA100, Metabolic Activation: RAT, LIVER, S-9, BETA-NAPHTHOFLAVONE, Method: PREINCUBATION): active; positive
- mutagenic call (Test System: AMES SALMONELLA TYPHIMURIUM, Strain/Indicator: TA100, Metabolic Activation: RAT, LIVER, S-9, PHENOBARBITAL, Method: PREINCUBATION): active; positive
- mutagenic call (Test System: AMES SALMONELLA TYPHIMURIUM, Strain/Indicator: TA100, Metabolic Activation: RAT, LIVER, S-9, Method: PREINCUBATION): active; positive
- mutagenic call (Test System: UDS RODENT HEPATOCYTES, Strain/Indicator: THY INCORP, Metabolic Activation: NONE, Method: AUTORADIOGRAPHY): active; positive

SMILES: COc1ccc(CNC(=O)C(C)Br)cc1 (stereo not given)
- mutagenic call [1]: active; positive

SMILES: NNc1nc(-c2ccc([N+](=O)[O-])cc2)cs1
- mutagenic call (Test System: AMES SALMONELLA TYPHIMURIUM, Strain/Indicator: TA98, Metabolic Activation: RAT, LIVER, S-9, KC500 OR PHENOBARBITAL, Method: LIQUID SUSPENSION): active; positive
- mutagenic call (Test System: AMES SALMONELLA TYPHIMURIUM, Strain/Indicator: TA100, Metabolic Activation: RAT, LIVER, S-9, KC500 OR PHENOBARBITAL, Method: LIQUID SUSPENSION): active; positive

SMILES: C[n+]1ccc(-c2ccccc2)cc1
- mutagenic call [2]: inactive; negative
- mutagenic call [3]: inactive; negative

SMILES: OCC(O)CO
- mutagenic call (End Point: IN VITRO CHROMOSOMAL ABERRATIONS, Test System: CHO-WBL CELLS, Metabolic Activation: NONE): inactive; negative
- mutagenic call (Test System: AMES SALMONELLA TYPHIMURIUM, Strain/Indicator: TA97, Metabolic Activation: NONE, Method: PREINCUBATION): inactive; negative
- mutagenic call (Test System: AMES SALMONELLA TYPHIMURIUM, Strain/Indicator: TA97, Metabolic Activation: RAT, LIVER, S-9, AROCLOR 1254, Method: PREINCUBATION): inactive; negative
- mutagenic call [4]: inactive; negative
- mutagenic call (Test System: AMES SALMONELLA TYPHIMURIUM, Strain/Indicator: TA98, Metabolic Activation: RAT, LIVER, S-9, KC 500, Method: PREINCUBATION): inactive; negative
- mutagenic call [2]: inactive; negative
- mutagenic call (Test System: AMES SALMONELLA TYPHIMURIUM, Strain/Indicator: TA100, Metabolic Activation: RAT, LIVER, S-9, KC 500, Method: PREINCUBATION): inactive; negative
- mutagenic call [3]: inactive; negative
- mutagenic call (Test System: AMES SALMONELLA TYPHIMURIUM, Strain/Indicator: TA102, Metabolic Activation: RAT, LIVER, S-9, AROCLOR 1254, Method: PREINCUBATION): inactive; negative
- mutagenic call (Test System: AMES SALMONELLA TYPHIMURIUM, Strain/Indicator: TA1535, Metabolic Activation: NONE, Method: PREINCUBATION): inactive; negative
- mutagenic call (Test System: AMES SALMONELLA TYPHIMURIUM, Strain/Indicator: TA1535, Metabolic Activation: RAT, LIVER, S-9, KC 500, Method: PREINCUBATION): inactive; negative
- mutagenic call (Test System: AMES SALMONELLA TYPHIMURIUM, Strain/Indicator: TA1537, Metabolic Activation: NONE, Method: PREINCUBATION): inactive; negative
- mutagenic call (Test System: AMES SALMONELLA TYPHIMURIUM, Strain/Indicator: TA1537, Metabolic Activation: RAT, LIVER, S-9, KC 500, Method: PREINCUBATION): inactive; negative
- mutagenic call (Test System: AMES SALMONELLA TYPHIMURIUM, Strain/Indicator: TA1538, Metabolic Activation: NONE, Method: PREINCUBATION): inactive; negative
- mutagenic call (Test System: AMES SALMONELLA TYPHIMURIUM, Strain/Indicator: TA1538, Metabolic Activation: RAT, LIVER, S-9, KC 500, Method: PREINCUBATION): inactive; negative
- mutagenic call (Test System: E. COLI, Strain/Indicator: WP2 UVRA, Metabolic Activation: NONE, Method: PREINCUBATION): inactive; negative
- mutagenic call (Test System: E. COLI, Strain/Indicator: WP2 UVRA, Metabolic Activation: RAT, LIVER, S-9, KC 500, Method: PREINCUBATION): inactive; negative

SMILES: COCCCN(N=O)C(N)=O
- mutagenic call (Test System: E. COLI B, Strain/Indicator: H/R30R, Metabolic Activation: NONE): active; positive
- mutagenic call (Test System: E. COLI B, Strain/Indicator: HS30R, Metabolic Activation: NONE): active; positive

SMILES: O=[N+]([O-])c1ccc2nc3ccc([N+](=O)[O-])cc3nc2c1
- mutagenic call (Test System: AMES SALMONELLA TYPHIMURIUM, Strain/Indicator: TA98(NR), Metabolic Activation: NONE, Method: PREINCUBATION): active; positive
- mutagenic call [4]: active; positive

SMILES: C=C1C(=O)O[C@@H]2CCN3CC=C(COC(=O)[C@](C)(O)[C@H](C)[C@H]1C)[C@H]23
- mutagenic call (Test System: AMES SALMONELLA TYPHIMURIUM, Strain/Indicator: TA100, Metabolic Activation: RAT, LIVER, S-9, SODIUM PHENOBARBITAL AND BETA-NAPHTHOFLAVONE, Method: PREINCUBATION): inactive; negative

SMILES: Nc1nc(NO)c2ncn([C@@H]3O[C@H](CO)[C@@H](O)[C@H]3O)c2n1
- mutagenic call (Test System: AMES SALMONELLA TYPHIMURIUM, Strain/Indicator: TA100(TN5-1,8-DNP1011), Metabolic Activation: NONE, Method: STANDARD PLATE): active; positive
- mutagenic call (Test System: AMES SALMONELLA TYPHIMURIUM, Strain/Indicator: TA100(TN5-1,8-DNP1012), Metabolic Activation: NONE, Method: STANDARD PLATE): active; positive
- mutagenic call [1]: active; positive
